Legend:
CD8 T cells [1] = assay: XFe ATP rate assay, CD8 T cells; format: cell-based, mouse; conditions: 10 μM, 72 hours
Protocol: (§1) Lymph nodes and spleen were isolated from wild-type C57BL/6N mice. Tissue was mechanically dissociated with the back of a syringe plunger and passed through a 70 M filter. […] Treated cells were incubated at 37° C., 5% CO2 for the designed study duration.
Treated CD8 T cell were prepared following the in vitro T cell activation method and incubated for 72 hours at 37° C., 5% CO2. Treated BM-MDSCs were prepared followed the in vitro BM-MDSCs differentiation method. The XFe ATP rate assay preparation and analysis was conducted following the manufacturer's user guide and instructions. […] Treated cells were removed from culture, pelleted and resuspended in warm assay medium at a concentration of 3×10^6 cells/ml (1.5×10^5 cells/well) for CD8 T cells and 2.6×10^6 cells/ml (1.3×10^5 cells/well) for BM-MDSCs. Cells were adhered to the culture plate by centrifugation 200×G, for one minute with zero brake per the manufacturer's instructions for immobilization of non-adherent cells (Agilent, Santa Clara, CA). […] Results were procured using the Seahorse XF real-time ATP rate assay report generator.

[2] = test system: cytochrome family of enzymes; conditions: cited from earlier work
CD8 T cells [3] = assay: Annexin/PI apoptosis staining, CD8; format: cell-based, mouse; conditions: 3 μM or 10 μM, 72 hours, vs DMSO
Protocol: as §1
Treated CD3 T cells were prepared following the in vitro T cell activation method and incubated for 72 hours at 37° C., 5% CO2.

[4] = cited from earlier work
CD8 T cells [5] = assay: Quantitative PCR of glycolysis enzymes; format: cell-based, mouse; conditions: 3 μM and 10 μM, 48 hours
Protocol: as §1

CD3 T cells = assay: Cytokine/chemokine quantification (Milliplex); format: cell-based, mouse; conditions: 72 hours
Protocol: Lymph nodes and spleen were isolated from wild-type C57BL/6N mice. Tissue was mechanically dissociated with the back of a syringe plunger and passed through a […] filter. […] Treated cells were incubated at 37° C., 5% CO2 for the designed study duration. […] Culture supernatant was harvested and clarified by centrifugation at 2000 RPMI for five minutes. […] Cytokines and chemokines were quantified using a Milliplex mouse cytokine/chemokine magnetic bead panel (Millipore […]32) on a Luminex MAGPIX system with undiluted samples following the manufacturer's instructions.

BM-MDSCs = assay: MDSC suppression assay; format: cell-based, mouse; conditions: for percent proliferation of CD3 T cells co-cultured with treated BM-MDSCs: DMSO control 40.73%
Protocol: 24-well plates were coated with […] anti-mouse CD3e and anti-mouse CD28 resuspended in PBS for two hours at 37° C., 5% C02. PBS containing coating antibodies were then removed and 1×10^6 naïve CFSE CD3 T cells in 1 ml was added to each well. Treated BM-MDSCs were removed using a rubber policeman. […] Cells were harvested and stained following the immune profiling by flow cytometry method. MDSC suppressive capacity was measured by their ability to inhibit CD3 T cell proliferation measured by CFSE dilution.

CD4 T cells = assay: CD4 T cell activation markers by flow cytometry; format: cell-based, mouse; conditions: 72 hours
Protocol: Lymph nodes and spleen were isolated from wild-type C57BL/6N mice. Tissue was mechanically dissociated with the back of a syringe plunger and passed through a […] filter. […] Treated cells were incubated at 37° C., 5% CO2 for the designed study duration. […] After staining, cells were pelleted, resuspended and run by a BD FACSymphony A3 flow cytometer.

CD8 T cells [6] = assay: 2-NBDG glucose analog uptake assay; format: cell-based, mouse; conditions: 72 hours
Protocol: as §1
Treated CD3 T cells were prepared following the in vitro T cell activation method and incubated for 72 hours at 37° C., 5% CO2. […] (Thermo #N13195) Cells were then incubated for one hour at 37° C., 5% CO2. After incubation, T cells were washed, pelleted and stained with anti-CD4, anti-CD8, anti-CD3 following the immune profiling by flow cytometry method. Percent uptake was calculated using mean fluorescent intensity (MFI).

O=c1nc(OC[C@@H]2COCCO2)cc2n1CCc1cc(C#CC3CC3)ccc1-2 [GLPG1205, 9-Cyclopropylethynyl-2-((S)-1-[1,4]dioxan-2-ylmethoxy)-6,7-dihydropyrimido[6,1-a]isoquinolin-4-one]
percent of ATP generated by OXPHOS (CD8 T cells [1]; DMSO 49%): 39.7%
percent of ATP generated by glycolysis (CD8 T cells [1]; DMSO 51%): 60.3%
ATP production rate through mitochondrial OXPHOS (mitoATP) (CD8 T cells [1]; DMSO 392.74): 486.75 pmol/min
ATP production rate through glycolysis (glycoATP) (CD8 T cells [1]; DMSO 409.61): 737.62 pmol/min
total ATP production rate (CD8 T cells [1]; DMSO control 816.19): 1224.27 pmol/min
OCR, ECAR and PER (CD8 T cells [1]; vs DMSO): raises the overall OCR, ECAR, and PER
interaction with the cytochrome family of enzymes [2]: strong safety profiles
CD8 apoptosis (Annexin/PI) (CD8 T cells [3]): significantly reduced CD8 apoptosis
inflammatory response in ulcerative colitis ([4]; in vivo): unable to improve the inflammatory response
adverse outcome in ulcerative colitis study ([4]; led to the drug's discontinuation): worsening of colitis in certain patients
gene expression of enzymes in glycolytic pathway compared to DMSO control (CD8 T cells [5]): significant dose-dependent increase
Eotaxin (CCL11) levels, increase vs DMSO (CD3 T cells; 3 μM): 19.87%
G-CSF, increase vs DMSO (CD3 T cells; 3 μM): 16.64%
GM-CSF, increase vs DMSO (CD3 T cells; 3 μM): 32.93%
IL-1P, increase vs DMSO (CD3 T cells; 3 μM): 20.06%
IL-2 production, increase vs DMSO (CD3 T cells; 3 μM): 51.36%
IL-3 secretion, increase vs DMSO (CD3 T cells; 3 μM): 31.91%
IL-4 secretion, increase vs DMSO (CD3 T cells; 3 μM): 26.55%
IL-6, increase vs DMSO (CD3 T cells; 3 μM): 30.71%
IL-9, increase vs DMSO (CD3 T cells; 3 μM): did not elicit any significant changes
IL-10, increase vs DMSO (CD3 T cells; 3 μM): 52.24%
IL-12(p40) levels, increase vs DMSO (CD3 T cells; 3 μM): 16.99%
IL-15 secretion, increase vs DMSO (CD3 T cells; 3 μM): 16.91%
IP-10 (CXCL10) secretion, increase vs DMSO (CD3 T cells; 3 μM): 28.52%
KC (CXCL1) concentrations, increase vs DMSO (CD3 T cells; 3 μM): 19.27%
LIF, increase vs DMSO (CD3 T cells; 3 μM): 41.71%
TNFα, increase vs DMSO (CD3 T cells; 3 μM): 39.64%
VEGF, increase vs DMSO (CD3 T cells; 3 μM): 51.99%
Eotaxin (CCL11) levels, increase vs DMSO (CD3 T cells; 10 μM): 16.57%
G-CSF, increase vs DMSO (CD3 T cells; 10 μM): 26.52%
IL-2 production, increase vs DMSO (CD3 T cells; 10 μM): 31.1%
IL-3 secretion, increase vs DMSO (CD3 T cells; 10 μM): 38.29%
IL-4 secretion, increase vs DMSO (CD3 T cells; 10 μM): did not elicit an effect
IL-6, increase vs DMSO (CD3 T cells; 10 μM): 28.38%
IL-9, increase vs DMSO (CD3 T cells; 10 μM): 19.94%
IL-10, increase vs DMSO (CD3 T cells; 10 μM): 58.46%
IL-12(p40) levels, increase vs DMSO (CD3 T cells; 10 μM): 21.77%
IL-15 secretion, increase vs DMSO (CD3 T cells; 10 μM): 15.05%
IP-10 (CXCL10) secretion, increase vs DMSO (CD3 T cells; 10 μM): 73.65%
KC (CXCL1) concentrations, increase vs DMSO (CD3 T cells; 10 μM): 25.62%
LIF, increase vs DMSO (CD3 T cells; 10 μM): 52.21%
LIX (CXCL5), increase vs DMSO (CD3 T cells; 10 μM): 20.94%
MCP-1 (CCL2), increase compared to DMSO control (CD3 T cells; 10 μM): 21.29%
RANTES (CCL5), increase vs DMSO (CD3 T cells; 10 μM): 29.8%
TNFα, increase vs DMSO (CD3 T cells; 10 μM): 50.91%
VEGF, increase vs DMSO (CD3 T cells; 10 μM): 71.18%
percent proliferation of CD3 T cells co-cultured with treated BM-MDSCs (BM-MDSCs; BM-MDSCs treated with 3 μM): 64.99%
percent proliferation of CD3 T cells co-cultured with treated BM-MDSCs (BM-MDSCs; BM-MDSCs treated with 10 μM): 62.49%
T cell proliferation in mixed culture of MDSC and T cells (BM-MDSCs; FIG. 6 Panel A): allows T cells to proliferate (multiply) better
CD25 expression, increase vs DMSO (CD4 T cells; 3 μM): 14.28%
CTLA4 expression, increase vs DMSO (CD4 T cells; 3 μM): 30.31%
CD25 expression, increase vs DMSO (CD4 T cells; 10 μM): 11.37%
CTLA4 expression, increase vs DMSO (CD4 T cells; 10 μM): 51.16%
2-NBDG uptake (MFI), Log2 fold change compared to DMSO control (CD8 T cells [6]; 3 μM): 0.19 Log2 fold change
2-NBDG uptake, increase vs DMSO (CD8 T cells [6]; 3 μM): 13.92%
2-NBDG uptake (MFI), Log2 fold change compared to DMSO control (CD8 T cells [6]; 10 μM): 0.24 Log2 fold change
2-NBDG uptake, increase vs DMSO (CD8 T cells [6]; 10 μM): 17.74%

— patent publication US20240358705A1, “COMPOSITIONS AND METHODS FOR TREATMENT OF CANCER” (Board of Supervisors of Louisiana State University and …, priority 2021, published 2024)
